Laboratory results published in BindingDB's records for patent US12384786 (Minghui Pharmaceutical (Shanghai), 2025).

Tests used:
[1] = target: Tyrosine-protein kinase BTK [C481S] (Homo sapiens, UniProt Q06187, C481S); experiment: Biochemical Evaluation
[2] = target: Tyrosine-protein kinase BTK (Homo sapiens, UniProt Q06187); experiment: Biochemical Evaluation
Tyrosine-protein kinase BTK, sequence (Q06187 whole entry): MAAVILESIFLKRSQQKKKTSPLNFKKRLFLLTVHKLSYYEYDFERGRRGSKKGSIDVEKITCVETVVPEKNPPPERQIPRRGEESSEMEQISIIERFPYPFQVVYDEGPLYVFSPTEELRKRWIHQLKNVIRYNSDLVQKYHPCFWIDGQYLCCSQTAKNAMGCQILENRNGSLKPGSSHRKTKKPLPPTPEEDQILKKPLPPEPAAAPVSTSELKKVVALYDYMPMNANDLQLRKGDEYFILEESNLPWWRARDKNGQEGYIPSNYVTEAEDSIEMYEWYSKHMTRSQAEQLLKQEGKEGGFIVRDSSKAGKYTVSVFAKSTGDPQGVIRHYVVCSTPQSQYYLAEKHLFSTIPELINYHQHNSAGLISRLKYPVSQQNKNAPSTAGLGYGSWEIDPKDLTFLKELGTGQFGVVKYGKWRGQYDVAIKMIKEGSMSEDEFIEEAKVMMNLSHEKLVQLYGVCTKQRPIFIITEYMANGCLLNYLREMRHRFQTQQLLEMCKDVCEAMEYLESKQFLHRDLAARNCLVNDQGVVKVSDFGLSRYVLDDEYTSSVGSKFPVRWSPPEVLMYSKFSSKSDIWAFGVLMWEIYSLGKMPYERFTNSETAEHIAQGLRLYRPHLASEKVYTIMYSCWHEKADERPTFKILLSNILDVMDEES

Tyrosine-protein kinase BTK [C481S], sequence (Q06187 2-659 C481S limits assumed): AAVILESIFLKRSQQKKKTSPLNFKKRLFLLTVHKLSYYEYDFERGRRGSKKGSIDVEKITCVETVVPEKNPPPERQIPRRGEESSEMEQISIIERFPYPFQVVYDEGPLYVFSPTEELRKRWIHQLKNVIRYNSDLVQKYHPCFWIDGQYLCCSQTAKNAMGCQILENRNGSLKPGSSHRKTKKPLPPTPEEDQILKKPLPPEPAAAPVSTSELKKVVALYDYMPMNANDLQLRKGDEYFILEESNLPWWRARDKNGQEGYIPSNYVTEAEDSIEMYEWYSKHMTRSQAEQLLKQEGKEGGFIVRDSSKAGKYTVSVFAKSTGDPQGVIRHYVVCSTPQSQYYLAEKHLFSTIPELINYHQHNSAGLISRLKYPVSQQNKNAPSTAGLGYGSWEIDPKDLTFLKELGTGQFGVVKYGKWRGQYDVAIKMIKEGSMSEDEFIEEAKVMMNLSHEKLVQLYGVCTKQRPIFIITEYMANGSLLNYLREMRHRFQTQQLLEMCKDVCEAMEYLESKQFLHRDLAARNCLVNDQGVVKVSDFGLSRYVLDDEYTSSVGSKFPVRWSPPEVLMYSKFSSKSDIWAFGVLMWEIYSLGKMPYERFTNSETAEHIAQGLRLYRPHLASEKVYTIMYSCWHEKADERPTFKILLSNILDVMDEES

IC50 [1]: 0.7 nM
IC50 [2]: 2.5 nM
SMILES: Nc1ncnc2c1c(-c1ccc(Oc3ccccc3)cc1)nn2[C@H]1CC[C@@H](O)CC1 [US12384786, Example 8A]
